The text below walks through data of patent publication US8637043B2, “Compositions useful as ligands for the formyl peptide receptor like 1 receptor and methods of use thereof” (Chemocentryx, Inc., priority 2001, dated 2014).

Where “and” joins values, the source holds several entries; their conditions need not be identical. Equal values may be shown once. Ends that are not written are not given here.

Format in all cases: in vivo
In test [1] the test system is dendritic cells. The test is described as follows: Dendritic cell infiltration after intradermal injection in mice (anti-DEC-205 staining). More on the design: key to Dendritic cell infiltration Score / Infiltration Score: 0 = none, 1 = slight, 2 = mild, 3 = moderate, 4 = severe. The text has this:
The following chemokines were obtained from R&D Systems (Minneapolis, Minn.): vMCK-2, mC10, and GM-CSF. The following peptides were synthesized at Phoenix Pharmaceuticals (San Carlos, Calif.): SHAAYtide (SEQ ID NO:6), several […] MODIFIED peptides of SHAAGtide variant (SEQ ID NO:) (i.e. cyclized using the MPR-Cys linked cyclization), control peptide (SEQ ID NO:33, […]Gin Pro Gly lie Lys Arg Arg Trp Leu Met), randomly conjugated to OVA in either a 1:1 or 1:4 ratio (by MBS coupling method), and conjugated to OVA at the C-terminus (C-term, made by the addition of a cysteine), and SHAAGtide variant (SEQ ID NO:3). In three separate experiments, chemokines or peptides (2 μg or 20 μg in PBS) were injected intradermally into BALB/c or C57BI/6 mice (Jackson Laboratory; Bar Harbor, Me.). In each experiment, one mouse received an injection of PBS only as a negative control. At various times after injection, the mice were euthanized, and the area around the injection site was excised and subjected to immunohistology. Frozen sections were stained with anti-DEC-205 antibody (Bio-Whittaker Molecular Applications; Rockland, Me.) that recognizes a dendritic cell-specific molecule (Kraal et al., 1986). A relative staining number on a scale of […] was assigned to each section (0, none; 1, slight; 2, mild; 3, moderate; 4, severe).

The subject of test [2] is OVA-specific antibody. The test is described as follows: OVA-specific antibody responses with IFA or alum adjuvant in Rhesus monkeys (Example 18). The method, then:
First, 96-well U-bottom plastic dishes were coated overnight with 1 μg ovalbumin (OVA) in 100 μl PBS per well. The next day, the dishes were rinsed with PBS, blocked with PBS containing 5% fetal bovine serum (FBS), and rinsed with PBS again. Plasma samples from experimental animals (see below) were diluted 10^2- to 10^5-fold and added to the dishes for 2 hours, after which the dishes were again rinsed with PBS. The dishes were then incubated with biotinylated goat anti-monkey IgG detection antibodies, then rinsed with PBS and incubated with streptavidin-linked horseradish peroxidase (SA-HRP). After a final rinsing with PBS, the HRP substrate 2,2′-Azinobis [3-ethylbenzothiazoline-6-sulfonic acid]-diammonium salt was added.
Different types of immune responses can be induced in mammals by varying parameters such as the dose of antigen, the formulation, the route of administration, and the type of adjuvant.

In test [3] the test system is OVA-specific IgG. The test is described as follows: Adjuvant activity, anti-OVA antibodies in Rhesus monkeys (Example 16). As to conditions: effectiveness as adjuvant. The procedure: First, 96-well U-bottom plastic dishes were coated overnight with 1 μg ovalbumin (OVA) in 100 μl PBS per well. The next day, the dishes were rinsed with PBS, blocked with PBS containing 5% fetal bovine serum (FBS), and rinsed with PBS again. Plasma samples from experimental animals (see below) were diluted 10^2- to 10^5-fold and added to the dishes for 2 hours, after which the dishes were again rinsed with PBS. The dishes were then incubated with biotinylated goat anti-monkey IgG detection antibodies, then rinsed with PBS and incubated with streptavidin-linked horseradish peroxidase (SA-HRP). After a final rinsing with PBS, the HRP substrate 2,2′-Azinobis [3-ethylbenzothiazoline-6-sulfonic acid]-diammonium salt was added. Color development was measured with an ELISA plate reader at 405 nm, and optical density (OD) units were converted to arbitrary “antibody units,” where a unit is defined as the inverse of the plasma dilution that produces 50% of the maximum response from a standard curve obtained by serial dilution of an ascites collected from OVA-injected mice and containing OVA-specific antibodies.
Since the SHAAYtide (SEQ ID NO:6) and the chemokines mC10 and vMCK-2 recruited APCs, including dendritic cells, to the site of injection, these polypeptides were tested for their ability to act as immunization adjuvants to augment the immune response to a co-injected foreign antigen. […]

In the case of MLWRRKIGPQMTLSHAAY [SEQ ID NO: 6], the “Dendritic cell infiltration Score” value is 2 and 3 in test [1] (BALBc mice, 2 μg, 6 hours, listed as SHAAYtide (SEQ ID NO: 6)); 3 and 2 in test [1] (BALBc mice, 2 μg, 30 hours, listed as SHAAYtide (SEQ ID NO: 6)); 2 and 3 in test [1] (BALBc mice, 20 μg, 6 hours, listed as SHAAYtide (SEQ ID NO: 6)); 1 in test [1] (C57B1/6 mice, 2 μg dose, 6 hours, 0 none, 1 slight, 2 mild, 3 moderate, 4 severe, one animal per line); 0 in test [1] (C57B1/6 mice, 2 μg dose, 30 hours); 0 in test [1] (C57B1/6 mice, 2 μg dose, 51 hours). Besides, the “infiltration of DEC-205-labeled cells” value in test [1] (summary of Tables 15, 16 and 17) is recorded as “excellent infiltration”. In addition, the “effect of co-administration on the OVA with IFA response” value in test [2] (IFA adjuvant) is listed as “did not diminish the OVA with IFA response”. Further, in test [2] (alum adjuvant), the “effect of co-administration on the IgG response induced by OVA plus alum” value was “dramatically reduced the IgG response induced by OVA plus alum”. Further, the “Notes: adjuvant” value in test [3] was “effective”.
